{"source": "the NIST ThermoML archive (doi:10.1021/je025631i)", "key": {"[1]": {"settings": "Liquid; for mass density: 293.15 K, 101.33 kPa, Vibrating tube method"}, "[2]": {"test": "refractive index (Na D-line) (dimensionless)", "settings": "293.15 K; 101.33 kPa; Liquid; Abbe refractometer"}}, "note": "± gives the expanded uncertainty stated by the source.", "data": [{"smiles": "CC1=CCC2CC1C2(C)C", "note": "(stereo unspecified) [2-pinene]", "values": [{"measurement": "mass density", "setting": "[1]", "value": "858.06 ± 0.16", "unit": "kg/m3"}, {"measurement": "vapor or sublimation pressure", "setting": "[1]; 348.15 K", "value": "7.35 ± 0.33", "unit": "kPa"}, {"measurement": "vapor or sublimation pressure", "setting": "[1]; 363.15 K", "value": "13.32 ± 0.35", "unit": "kPa"}, {"measurement": "vapor or sublimation pressure", "setting": "[1]; 382.79 K", "value": "26.66 ± 0.34", "unit": "kPa"}, {"measurement": "vapor or sublimation pressure", "setting": "[1]; 383.15 K", "value": "26.98 ± 0.4", "unit": "kPa"}, {"measurement": "vapor or sublimation pressure", "setting": "[1]; 405.54 K", "value": "53.33 ± 0.41", "unit": "kPa"}, {"measurement": "vapor or sublimation pressure", "setting": "[1]; 429.34 K", "value": "101.32 ± 0.5", "unit": "kPa"}, {"measurement": "refractive index", "setting": "[2]", "value": "1.4657 ± 0.0003"}]}, {"smiles": "CCCCCCCC", "note": "[octane]", "values": [{"measurement": "mass density", "setting": "[1]", "value": "702.44 ± 0.18", "unit": "kg/m3"}, {"measurement": "vapor or sublimation pressure", "setting": "[1]; 348.15 K", "value": "19.31 ± 0.37", "unit": "kPa"}, {"measurement": "vapor or sublimation pressure", "setting": "[1]; 356.74 K", "value": "26.66 ± 0.3", "unit": "kPa"}, {"measurement": "vapor or sublimation pressure", "setting": "[1]; 363.15 K", "value": "33.52 ± 0.42", "unit": "kPa"}, {"measurement": "vapor or sublimation pressure", "setting": "[1]; 376.95 K", "value": "53.33 ± 0.36", "unit": "kPa"}, {"measurement": "vapor or sublimation pressure", "setting": "[1]; 383.15 K", "value": "64.25 ± 0.52", "unit": "kPa"}, {"measurement": "vapor or sublimation pressure", "setting": "[1]; 398.79 K", "value": "101.3 ± 0.5", "unit": "kPa"}, {"measurement": "refractive index", "setting": "[2]", "value": "1.3973 ± 0.0003"}]}]}
